How the values were obtained:
[1] = Exploratory water solubility in 10 mM Tris-HCl buffer, pH 7.4; format: physicochemical; settings: aqueous buffer (10 mM Tris-HCl), 20 °C
Method: The exploratory water solubility of the compounds is determined at room temperature (20 °C) in 0.5 mL buffer solution (10 mM Tris-HCl, pH 7.4) in the microcentrifuge tubes (Eppendorf, 2.0 mL safe-lock caps). The solid compounds were added stepwise to the buffer solution. More substance is added once all the suspended material is dissolved until an equilibrium between undissolved and dissolved substance is reached. The suspension was mixed using a shaker (Heidolph Reax 2000) and treated 5 min in an ultrasound bath (Bandelin, Sonorex Super RK255H). The Gadolinium concentration of the test substance in the clear solution is measured by ICP-MS.

[2] = Relaxivity measurements at 1.41 T in water and human plasma; format: physicochemical; settings: 37 °C, normalized to Gd
Method: Relaxivity measurements at 1.41 T were performed using a MiniSpec mq60 spectrometer (Bruker Analytik, Karlsruhe, Germany) operating at a resonance frequency of 60 MHz and a temperature of 37 °C. The T1 relaxation times were determined using the standard inversion recovery (IR) method with a fixed relaxation delay of at least 5×T1. The variable inversion time (TI) was calculated automatically by the standard software of the MiniSpec mq60 (8 steps). The T2 measurements were performed by using a Carr-Purcell-Meiboom-Gill (CPMG) pulse sequence, applying a relaxation delay of at least 5×T1.
Each relaxivity measurement was performed using three different Gd concentrations (3 concentrations between 0.05 and 2 mM). The T1 and T2 relaxation times of the example compounds 1 to 10 were measured in different media for example in water and human plasma. Human plasma preparation: For each experiment fresh blood was taken from a volunteer using 10 mL citrate-tubes (Sarstedt S-Monovette 02.1067.001, 10 mL, Citrate). The 10 mL citrate-tubes were carefully inverted 10 times to mix blood and anticoagulant and centrifuged for 15 min at 1811 g at RT (Eppendorf, Centrifuge 5810R).
The relaxivities ri (where i=1, 2) were calculated based on the measured relaxation rates R, in water and plasma:
where Ri(0) represent the relaxation rate of the respective solvent and CGd the concentration of the compound normalized to the Gadolinium. The Gadolinium concentrations of the investigated solutions were verified by Inductively Coupled Plasma Mass Spectrometry (ICP-MS Agilent 7500a, Waldbronn, Germany).

[3] = No-observed-adverse-effect level (NOAEL) in mice; settings: intravenous bolus injection
[4] = target: T1, OATP1B3 (Homo sapiens, UniProt Q9NPD5); assay: Uptake into stable transfected OATP1B3 HEK 293 cells; format: cell-based; settings: 100 μM, 40 min, relative to RC1 (Gd-EOB-DTPA)
T1 construct: expressed in transfected cells
T1 sequence (Q9NPD5 1-702): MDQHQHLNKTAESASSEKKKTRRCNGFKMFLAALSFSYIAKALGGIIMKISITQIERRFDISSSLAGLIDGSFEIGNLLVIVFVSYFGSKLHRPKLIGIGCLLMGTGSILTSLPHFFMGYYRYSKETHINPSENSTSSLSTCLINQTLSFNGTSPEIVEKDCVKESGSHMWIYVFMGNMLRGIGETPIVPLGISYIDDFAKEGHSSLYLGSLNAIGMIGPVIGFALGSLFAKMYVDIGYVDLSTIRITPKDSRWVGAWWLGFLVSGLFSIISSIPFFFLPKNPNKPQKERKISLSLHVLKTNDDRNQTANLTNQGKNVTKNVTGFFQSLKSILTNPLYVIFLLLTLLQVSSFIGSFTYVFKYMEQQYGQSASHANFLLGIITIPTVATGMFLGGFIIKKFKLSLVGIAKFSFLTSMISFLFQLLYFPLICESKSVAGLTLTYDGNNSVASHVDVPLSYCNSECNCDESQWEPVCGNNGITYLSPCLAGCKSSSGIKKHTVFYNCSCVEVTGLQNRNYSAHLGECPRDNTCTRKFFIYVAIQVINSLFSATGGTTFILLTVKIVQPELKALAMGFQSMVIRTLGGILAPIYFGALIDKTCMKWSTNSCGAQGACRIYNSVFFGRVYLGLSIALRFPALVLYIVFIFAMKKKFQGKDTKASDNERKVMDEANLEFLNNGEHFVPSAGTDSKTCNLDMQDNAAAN
Method: Human transfected OATP1B3 human embryonic kidney 293 cells (OATP1B3 HEK 293, SLCO1B3, Entrez Gene ID: 28234) were used (Leonhardt M et al. Drug Metab Dispos. 2010 July; 38(7):1024-8). The following culture medium was used: 500 mL DMEM (Dulbecco's Modified Eagle Medium—high Glucose, D6429), 50 mL FCS (fetal bovine serum, Fa. Sigma, F7524), 5.8 mL G418 (Geneticin, Fa. Gibco 10131-027) and 5 mL Pen-Strep. (Penicillin-Streptomycin, Fa. Gibco, Ref 15140-122). Cryopreserved cells were shortly thawed in water bath and diluted in 10 mL warm culture medium (37 °C). After medium change the cells were grown for 3d in a 25 cm^2 cell culture flask. After 3 to 5d the cells were transferred into 75 cm^2 flasks. For the splitting of cells these were incubated with 1.5 mL trypsin (Trypsin-EDTA (1×) 0.05%, Ref 25300-054 100 ml, Fa. Gibco) for 3-5 min in the incubator (37 °C, 5% CO2 and 95% oxygen). After centrifugation and washing with medium the cells were counted (50 μL cell suspension and 50 μL trypan blue (Trypan Blue Solution, 93595-50 ml, Fa. Fluka). Cells were cultured (1×10^5 cells/well) in poly-D-lysine coated 24-well plates (Fa. Corning, Ref: 354414) in 1.5 mL medium per well. After 48 hours in the incubator the medium was changed and 1.5 mL/well sodium butyrate containing medium were added (40 mL culture medium plus 400 μL Na-Butyrate, Fa. Sigma Aldrich B5887-5G, 250 mg in 2.27 mL MilliQ water). After 24 hours in the incubator the medium was vacuumed off and 1.5 mL transport buffer was added and incubated for 10 min. The transport buffer contains the following ingredients: 500 mL HBSS (Hank's balanced salt solution, Hyclone, SH30268.01), 5 mL HEPES buffer (4-(2-hydroxyethyl)-1-piperazine-ethanesulfonic acid, Gibco 15630-056) and 3.9 mL glucose (Sigma, G8270-100, 90 g/200 mL MilliQ water). All test items were prepared in transport buffer at a final concentration of 100 μM from stock solutions (180 to 500 mM concentration). The OATP1B3 HEK 293 cells were incubated with test solutions (test item in transport buffer 500 μL) for 40 min on a thermoshaker without shaking (PHMP, Fa. Grant Bio). Triplicates were performed for each test item. After incubation the cells were washed with 2 mL of cold PBS (+) buffer (Dulbeccos PBS+, Fa. Gibco). […] As a reference standard Gd-EOB-DTPA (gadoxetate) is used in the same well plate. The OATP1B3 HEK 293 uptake of the test compound is calculated relative to gadoxetate (resulting in the unit % of RC1).

SMILES	Solubility [1] [mM]	r1 human plasma [2] [L/mmol/s]	r1 water [2] [L/mmol/s]	NOAEL [3] [mmol Gd/kg bw]	Uptake into OATP1B3-HEK 293 cells [4]
CCOCCOc1ccc(C[C@H]2CN(CC(=O)[O-])CCN(CC(=O)[O-])CCN(CC(=O)O)CCN2CC(=O)[O-])cc1.[Gd+3] [Example 4, Gadolinium-2,2′,2″-{(2S)-10-(carboxymethyl)-2-[4-(2-ethoxyethoxy)benzyl]-1,4,7,10-tetraazacyclododecane-1,4,7-triyl}triacetate]	>738	6.6	4.8	2.50	103 % of RC1
CCOc1ccc(CC2CN(CC(=O)[O-])CCN(CC(=O)[O-])CCN(CC(=O)O)CCN2CC(=O)[O-])cc1.[Gd+3] (stereo not shown) [Example 7, Gadolinium-2,2′,2″-[10-(carboxymethyl)-2-(4-ethoxybenzyl)-1,4,7,10-tetraazacyclododecane-1,4,7-triyl]triacetate]	>403	6.2	4.5	1.50	36 % of RC1

— patent US20260365677A1, “NEW CONTRAST AGENTS FOR USE IN DIAGNOSTIC IMAGING” (Bayer Aktiengesellschaft, priority 2022, published 2026)
